Target: c-kit (Homo sapiens, UniProt P10721)
Test: c-kit assays of Examples 40 and 41 (AlphaScreen kinase assays at 10 and 100 μM ATP, 33P-ATP filter assay, M-07e SCF-stimulated proliferation and phosphorylation)

c-kit, sequence (P10721 with tags, fused parts or gaps): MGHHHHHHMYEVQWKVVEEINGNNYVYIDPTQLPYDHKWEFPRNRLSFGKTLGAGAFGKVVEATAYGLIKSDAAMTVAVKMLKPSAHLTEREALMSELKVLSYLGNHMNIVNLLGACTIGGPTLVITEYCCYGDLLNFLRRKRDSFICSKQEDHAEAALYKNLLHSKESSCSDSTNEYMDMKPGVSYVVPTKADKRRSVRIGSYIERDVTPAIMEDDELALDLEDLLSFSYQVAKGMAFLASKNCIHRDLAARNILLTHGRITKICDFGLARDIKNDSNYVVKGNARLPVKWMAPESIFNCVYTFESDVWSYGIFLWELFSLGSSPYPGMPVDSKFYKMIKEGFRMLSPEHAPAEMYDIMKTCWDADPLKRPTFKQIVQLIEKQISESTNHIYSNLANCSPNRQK

| Structure (SMILES) | IC50 [nM] |
| --- | --- |
| FC(F)(F)c1cccc(CNc2ccc(Cc3c[nH]c4ncccc34)cn2)c1Cl [P-0363, (2-Chloro-3-trifluoromethyl-benzyl)-[5-(1H-pyrrolo[2,3-b]pyridin-3-ylmethyl)-pyridin-2-yl]-amine] | < 1000 |
| Fc1c(CNc2ccc(Cc3c[nH]c4ncccc34)cn2)cccc1C(F)(F)F [P-0365, (2-Fluoro-3-trifluoromethyl-benzyl)-[5-(1H-pyrrolo[2,3-b]pyridin-3-ylmethyl)-pyridin-2-yl]-amine] | < 1000 |
| COc1ccc(F)cc1CNc1ccc(Cc2c[nH]c3ncccc23)cn1 [P-0366, (5-Fluoro-2-methoxy-benzyl)-[5-(1H-pyrrolo[2,3-b]pyridin-3-ylmethyl)-pyridin-2-yl]-amine] | < 1000 |
| FC(F)Oc1ccccc1CNc1ccc(Cc2c[nH]c3ncccc23)cn1 [P-0367, (2-Difluoromethoxy-benzyl)-[5-(1H-pyrrolo[2,3-b]pyridin-3-ylmethyl)-pyridin-2-yl]-amine] | < 1000 |
| Cc1ccc(CNc2ccc(Cc3c[nH]c4ncccc34)cn2)c(F)c1 [P-0368, (2-Fluoro-4-methyl-benzyl)-[5-(1H-pyrrolo[2,3-b]pyridin-3-ylmethyl)-pyridin-2-yl]-amine] | < 1000 |
| CN(C)CCCOc1ccccc1CNc1ccc(Cc2c[nH]c3ncccc23)cn1 [P-0369, [2-(3-Dimethylamino-propoxy)-benzyl]-[5-(1H-pyrrolo[2,3-b]pyridin-3-ylmethyl)-pyridin-2-yl]-amine] | < 1000 |
| COc1ccc(CNc2ccc(Cc3c[nH]c4ncccc34)cn2)c(OC)n1 [P-0370, (2,6-Dimethoxy-pyridin-3-ylmethyl)-[5-(1H-pyrrolo[2,3-b]pyridin-3-ylmethyl)-pyridin-2-yl]-amine] | < 1000 |
| COc1ccc(F)c(CNc2ccc(Cc3c[nH]c4ncccc34)cn2)c1 [P-0371, (2-Fluoro-5-methoxy-benzyl)-[5-(1H-pyrrolo[2,3-b]pyridin-3-ylmethyl)-pyridin-2-yl]-amine] | < 1000 |
| Cc1cc(F)ccc1CNc1ccc(Cc2c[nH]c3ncccc23)cn1 [P-0372, (4-Fluoro-2-methyl-benzyl)-[5-(1H-pyrrolo[2,3-b]pyridin-3-ylmethyl)-pyridin-2-yl]-amine] | < 1000 |
| Fc1cc(Cl)cc(CNc2ccc(Cc3c[nH]c4ncccc34)cn2)c1 [P-0373, (3-Chloro-5-fluoro-benzyl)-[5-(1H-pyrrolo[2,3-b]pyridin-3-ylmethyl)-pyridin-2-yl]-amine] | < 1000 |
| Fc1ccc(C(F)(F)F)c(CNc2ccc(Cc3c[nH]c4ncccc34)cn2)c1 [P-0375, (5-Fluoro-2-trifluoromethyl-benzyl)-[5-(1H-pyrrolo[2,3-b]pyridin-3-ylmethyl)-pyridin-2-yl]-amine] | < 1000 |
| FC(F)(F)COc1ncccc1CNc1ccc(Cc2c[nH]c3ncccc23)cn1 [P-0376, [5-(1H-Pyrrolo[2,3-b]pyridin-3-ylmethyl)-pyridin-2-yl]-[2-(2,2,2-trifluoro-ethoxy)-pyridin-3-ylmethyl]-amine] | < 1000 |
| CCCS(=O)(=O)Nc1cccc(CNc2ccc(Cc3c[nH]c4ncccc34)cn2)c1F [P-0377, Propane-1-sulfonic acid (2-fluoro-3-{[5-(1H-pyrrolo[2,3-b]pyridin-3-ylmethyl)-pyridin-2-ylamino]-methyl}-phenyl)-amide] | < 1000 |
| COc1ccc(CNc2ccc(Cc3c[nH]c4ncccc34)c(F)n2)cn1 [P-0378, [6-Fluoro-5-(1H-pyrrolo[2,3-b]pyridin-3-ylmethyl)-pyridin-2-yl]-(6-methoxy-pyridin-3-ylmethyl)-amine] | < 1000 |
| COc1ccc(CNc2ccc(Cc3c[nH]c4ncc(Cl)cc34)c(F)n2)cn1 [P-0379, [5-(5-Chloro-1H-pyrrolo[2,3-b]pyridin-3-ylmethyl)-6-fluoro-pyridin-2-yl]-(6-methoxy-pyridin-3-ylmethyl)-amine] | < 1000 |
| Fc1ccc(Cl)cc1CNc1ccc(Cc2c[nH]c3ncccc23)cn1 [P-0382, (5-Chloro-2-fluoro-benzyl)-[5-(1H-pyrrolo[2,3-b]pyridin-3-ylmethyl)-pyridin-2-yl]-amine] | < 1000 |
| CCc1ccccc1CNc1ccc(Cc2c[nH]c3ncccc23)cn1 [P-0383, (2-Ethyl-benzyl)-[5-(1H-pyrrolo[2,3-b]pyridin-3-ylmethyl)-pyridin-2-yl]-amine] | < 1000 |
| CNc1ncccc1CNc1ccc(Cc2c[nH]c3ncccc23)cn1 [P-0385, Methyl-(3-{[5-(1H-pyrrolo[2,3-b]pyridin-3-ylmethyl)-pyridin-2-ylamino]-methyl}-pyridin-2-yl)-amine] | < 1000 |
| CS(=O)(=O)c1ccc(CNc2ccc(Cc3c[nH]c4ncccc34)cn2)c(Cl)c1 [P-0387, (2-Chloro-4-methanesulfonyl-benzyl)-[5-(1H-pyrrolo[2,3-b]pyridin-3-ylmethyl)-pyridin-2-yl]-amine] | < 1000 |
| FC(F)Oc1ccccc1CNc1ncc(Cc2c[nH]c3ncc(Cl)cc23)cn1 [P-0390, [5-(5-Chloro-1H-pyrrolo[2,3-b]pyridin-3-ylmethyl)-pyrimidin-2-yl]-(2-difluoromethoxy-benzyl)-amine] | < 1000 |
| Fc1c(Cl)cccc1CNc1ncc(Cc2c[nH]c3ncc(Cl)cc23)cn1 [P-0392, (3-Chloro-2-fluoro-benzyl)-[5-(5-chloro-1H-pyrrolo[2,3-b]pyridin-3-ylmethyl)-pyrimidin-2-yl]-amine] | < 1000 |
| Fc1c(CNc2ncc(Cc3c[nH]c4ncc(Cl)cc34)cn2)cccc1C(F)(F)F [P-0393, [5-(5-Chloro-1H-pyrrolo[2,3-b]pyridin-3-ylmethyl)-pyrimidin-2-yl]-(2-fluoro-3-trifluoromethyl-benzyl)-amine] | < 1000 |
| Fc1cc(C(F)(F)F)ccc1CNc1ncc(Cc2c[nH]c3ncc(Cl)cc23)cn1 [P-0394, [5-(5-Chloro-1H-pyrrolo[2,3-b]pyridin-3-ylmethyl)-pyrimidin-2-yl]-(2-fluoro-4-trifluoromethyl-benzyl)-amine] | < 1000 |

Results, then the molecule that gave them:

| IC50 [nM] | Structure (SMILES) |
| --- | --- |
| < 1000 | Fc1cccc(CNc2ccc(Cc3c[nH]c4ncccc34)cn2)c1 [P-0343, (3-Fluoro-benzyl)-[5-(1H-pyrrolo[2,3-b]pyridin-3-ylmethyl)-pyridin-2-yl]-amine] |
| < 1000 | Fc1cc(C(F)(F)F)ccc1CNc1ccc(Cc2c[nH]c3ncccc23)cn1 [P-0344, (2-Fluoro-4-trifluoromethyl-benzyl)-[5-(1H-pyrrolo[2,3-b]pyridin-3-ylmethyl)-pyridin-2-yl]-amine] |
| < 1000 | Fc1cc(Cl)ccc1CNc1ccc(Cc2c[nH]c3ncccc23)cn1 [P-0345, (4-Chloro-2-fluoro-benzyl)-[5-(1H-pyrrolo[2,3-b]pyridin-3-ylmethyl)-pyridin-2-yl]-amine] |
| < 1000 | Fc1cc(CNc2ccc(Cc3c[nH]c4ncccc34)cn2)cc(C(F)(F)F)c1 [P-0346, (3-Fluoro-5-trifluoromethyl-benzyl)-[5-(1H-pyrrolo[2,3-b]pyridin-3-ylmethyl)-pyridin-2-yl]-amine] |
| < 1000 | c1cnc(N2CCOCC2)c(CNc2ccc(Cc3c[nH]c4ncccc34)cn2)c1 [P-0347, (2-Morpholin-4-yl-pyridin-3-ylmethyl)-[5-(1H-pyrrolo[2,3-b]pyridin-3-ylmethyl)-pyridin-2-yl]-amine] |
| < 1000 | FC(F)(F)c1cc(CNc2ccc(Cc3c[nH]c4ncccc34)cn2)ccc1Cl [P-0348, (4-Chloro-3-trifluoromethyl-benzyl)-[5-(1H-pyrrolo[2,3-b]pyridin-3-ylmethyl)-pyridin-2-yl]-amine] |
| < 1000 | Fc1ccc(C(F)(F)F)cc1CNc1ccc(Cc2c[nH]c3ncccc23)cn1 [P-0350, (2-Fluoro-5-trifluoromethyl-benzyl)-[5-(1H-pyrrolo[2,3-b]pyridin-3-ylmethyl)-pyridin-2-yl]-amine] |
| < 1000 | Clc1cccc(CNc2ccc(Cc3c[nH]c4ncccc34)cn2)c1Cl [P-0351, (2,3-Dichloro-benzyl)-[5-(1H-pyrrolo[2,3-b]pyridin-3-ylmethyl)-pyridin-2-yl]-amine] |
| < 1000 | COc1cccc(CNc2ccc(Cc3c[nH]c4ncccc34)cn2)c1F [P-0352, (2-Fluoro-3-methoxy-benzyl)-[5-(1H-pyrrolo[2,3-b]pyridin-3-ylmethyl)-pyridin-2-yl]-amine] |
| < 1000 | Fc1c(Cl)cccc1CNc1ccc(Cc2c[nH]c3ncccc23)cn1 [P-0354, (3-Chloro-2-fluoro-benzyl)-[5-(1H-pyrrolo[2,3-b]pyridin-3-ylmethyl)-pyridin-2-yl]-amine] |
| < 1000 | Fc1ccc(CNc2ccc(Cc3c[nH]c4ncccc34)cn2)nc1 [P-0355, (5-Fluoro-pyridin-2-ylmethyl)-[5-(1H-pyrrolo[2,3-b]pyridin-3-ylmethyl)-pyridin-2-yl]-amine] |
| < 1000 | Fc1cc(F)cc(CNc2ccc(Cc3c[nH]c4ncccc34)cn2)c1 [P-0356, (3,5-Difluoro-benzyl)-[5-(1H-pyrrolo[2,3-b]pyridin-3-ylmethyl)-pyridin-2-yl]-amine] |
| < 1000 | CCCOc1ccccc1CNc1ccc(Cc2c[nH]c3ncccc23)cn1 [P-0357, (2-Propoxy-benzyl)-[5-(1H-pyrrolo[2,3-b]pyridin-3-ylmethyl)-pyridin-2-yl]-amine] |
| < 1000 | c1ccc(N2CCOCC2)c(CNc2ccc(Cc3c[nH]c4ncccc34)cn2)c1 [P-0358, (2-Morpholin-4-yl-benzyl)-[5-(1H-pyrrolo[2,3-b]pyridin-3-ylmethyl)-pyridin-2-yl]-amine] |
| < 1000 | COc1cccc(CNc2ccc(Cc3c[nH]c4ncccc34)cn2)c1Cl [P-0359, (2-Chloro-3-methoxy-benzyl)-[5-(1H-pyrrolo[2,3-b]pyridin-3-ylmethyl)-pyridin-2-yl]-amine] |
| < 1000 | c1ccc(OCCN2CCOCC2)c(CNc2ccc(Cc3c[nH]c4ncccc34)cn2)c1 [P-0361, [2-(2-Morpholin-4-yl-ethoxy)-benzyl]-[5-(1H-pyrrolo[2,3-b]pyridin-3-ylmethyl)-pyridin-2-yl]-amine] |
| < 1000 | Fc1cccc(CNc2ccc(Cc3c[nH]c4ncccc34)cn2)c1F [P-0362, (2,3-Difluoro-benzyl)-[5-(1H-pyrrolo[2,3-b]pyridin-3-ylmethyl)-pyridin-2-yl]-amine] |

Source: patent US9487515B2, “Compounds modulating c-fms and/or c-kit activity and uses therefor” (Plexxikon Inc., priority 2006, dated 2016)
